Experiments:
Crizotinib = compound: C[C@@H](Oc1cc(-c2cnn(C3CCNCC3)c2)cnc1N)c1c(Cl)ccc(F)c1Cl [Crizotinib]; conditions: max 10 µM
Outline: (§1)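 After 24 hours at 37°C and 5% CO2 in 1536-well plates holding 7.5 μl of DMEM/F12 or RPMI with 10% FBS, cancer cell lines were dosed for 72 hours, with final DMSO typically 0.2%. Viability came from CellTiter-Glo 2.0 luminescence, scaled between the means of blank wells and DMSO wells. A non-linear mixed effects model fitted a two-parameter logistic curve to each dose response to give the single-agent IC50.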

Selumetinib = compound: Cn1cnc2c(F)c(Nc3ccc(Br)cc3Cl)c(C(=O)NOCCO)cc21 [Selumetinib]; conditions: max 10 µM
Outline: as §1

SN-38 = compound: CCc1c2c(nc3ccc(O)cc13)-c1cc3c(c(=O)n1C2)COC(=O)[C@]3(O)CC [SN-38]; conditions: max 0.3 µM
Outline: as §1

AZD5991 = compound: Cc1c2c(nn1C)CSCc1cc(n(C)n1)CSc1cc(c3ccccc3c1)OCCCc1c(C(=O)O)n(C)c3c-2c(Cl)ccc13 [AZD5991]; conditions: max 1 µM
Outline: as §1

Paclitaxel = compound: CC(=O)O[C@H]1C(=O)[C@@]2(C)[C@H]([C@H](OC(=O)c3ccccc3)[C@]3(O)C[C@H](OC(=O)[C@H](O)[C@@H](NC(=O)c4ccccc4)c4ccccc4)C(C)=C1C3(C)C)[C@]1(OC(C)=O)CO[C@@H]1C[C@@H]2O [Paclitaxel]; conditions: max 3 µM
Outline: as §1

AZD5153 = compound: COc1nnc2ccc(N3CCC(c4ccc(OCCN5CCN(C)C(=O)[C@H]5C)cc4)CC3)nn12 [AZD5153]; conditions: max 1 µM
Outline: as §1

Trametinib = compound: CC(=O)Nc1cccc(-n2c(=O)n(C3CC3)c(=O)c3c(Nc4ccc(I)cc4F)n(C)c(=O)c(C)c32)c1 [Trametinib]; conditions: max 1 µM
Outline: as §1

Lapatinib = compound: CS(=O)(=O)CCNCc1ccc(-c2ccc3ncnc(Nc4ccc(OCc5cccc(F)c5)c(Cl)c4)c3c2)o1 [Lapatinib]; conditions: max 10 µM
Outline: as §1

Etoposide = compound: COc1cc([C@@H]2c3cc4c(cc3[C@@H](O[C@@H]3O[C@@H]5CO[C@@H](C)O[C@H]5[C@H](O)[C@H]3O)[C@H]3COC(=O)[C@H]23)OCO4)cc(OC)c1O [Etoposide]; conditions: max 10 µM
Outline: as §1

[1] = compound: O=C(Nc1ccc2[nH]nc(-c3ccncc3)c2c1)[C@@H]1CCN(CC(=O)N2CCN(c3ccc(-c4ncccn4)cc3)CC2)C1; conditions: max 5 µM
Outline: as §1

AZD2811 = compound: CCN(CCO)CCCOc1ccc2c(Nc3cc(CC(=O)Nc4cccc(F)c4)[nH]n3)ncnc2c1 [AZD2811]; conditions: max 1 µM
Outline: as §1

Gefitinib = compound: COc1cc2ncnc(Nc3ccc(F)c(Cl)c3)c2cc1OCCCN1CCOCC1 [Gefitinib]; conditions: max 10 µM
Outline: as §1

Doxorubicin = compound: COc1cccc2c1C(=O)c1c(O)c3c(c(O)c1C2=O)C[C@@](O)(C(=O)CO)C[C@@H]3O[C@H]1C[C@H](N)[C@H](O)[C@H](C)O1 [Doxorubicin]; conditions: max 1 µM
Outline: as §1

Olaparib = compound: O=C(c1cc(Cc2n[nH]c(=O)c3ccccc23)ccc1F)N1CCN(C(=O)C2CC2)CC1 [Olaparib]; conditions: max 10 µM
Outline: as §1

Prexasertib = compound: COc1cccc(OCCCN)c1-c1cc(Nc2cnc(C#N)cn2)n[nH]1 [Prexasertib]; conditions: max 1 µM
Outline: as §1

SRA737 = compound: N#Cc1cnc(Nc2cc(NC[C@H]3CNCCO3)c(C(F)(F)F)cn2)cn1 [SRA737]; conditions: max 10 µM
Outline: as §1

Venetoclax = compound: CC1(C)CCC(CN2CCN(c3ccc(C(=O)NS(=O)(=O)c4ccc(NCC5CCOCC5)c([N+](=O)[O-])c4)c(Oc4cnc5[nH]ccc5c4)c3)CC2)=C(c2ccc(Cl)cc2)C1 [Venetoclax]; conditions: max 1 µM
Outline: as §1

Taselisib = compound: Cc1nc(-c2cn3c(n2)-c2ccc(-c4cnn(C(C)(C)C(N)=O)c4)cc2OCC3)n(C(C)C)n1 [Taselisib]; conditions: max 10 µM
Outline: as §1

AZD1390 = compound: CC(C)n1c(=O)n(C)c2cnc3cc(F)c(-c4ccc(OCCCN5CCCCC5)nc4)cc3c21 [AZD1390]; conditions: max 0.3 µM
Outline: as §1

Alisertib = compound: COc1cc(Nc2ncc3c(n2)-c2ccc(Cl)cc2C(c2c(F)cccc2OC)=NC3)ccc1C(=O)O [Alisertib]; conditions: max 10 µM
Outline: as §1

MK-2206 = compound: NC1(c2ccc(-c3nc4ccn5c(=O)[nH]nc5c4cc3-c3ccccc3)cc2)CCC1 [MK-2206]; conditions: max 10 µM
Outline: as §1

AZD7648 = compound: Cc1cc2ncnn2cc1Nc1ncc2c(n1)n(C1CCOCC1)c(=O)n2C [AZD7648]; conditions: max 10 µM
Outline: as §1

Palbociclib = compound: CC(=O)c1c(C)c2cnc(Nc3ccc(N4CCNCC4)cn3)nc2n(C2CCCC2)c1=O [Palbociclib]; conditions: max 10 µM
Outline: as §1

AZD6738 = compound: C[C@@H]1COCCN1C2=NC(=NC(=C2)C3(CC3)[S@](=N)(=O)C)C4=C5C=CNC5=NC=C4 [AZD6738]; conditions: max 10 µM
Outline: as §1

Savolitinib = compound: C[C@@H](c1ccc2nccn2c1)n1nnc2ncc(-c3cnn(C)c3)nc21 [Savolitinib]; conditions: max 1 µM
Outline: as §1

AZD1775 = compound: C=CCn1c(=O)c2cnc(Nc3ccc(N4CCN(C)CC4)cc3)nc2n1-c1cccc(C(C)(C)O)n1 [AZD1775]; conditions: max 3 µM
Outline: as §1

AZD4320 = compound: CN(CC[C@H](CSC1=CC=CC=C1)NC2=C(C=C(C=C2)S(=O)(=O)NC(=O)C3=CC=C(C=C3)N4CCC(CC4)[C@H](C5=CC=CC=C5C6=CC=C(C=C6)Cl)O)S(=O)(=O)C(F)(F)F)CCO [AZD4320]; conditions: max 1 µM
Outline: as §1

AZD8186 = compound: C[C@@H](Nc1cc(F)cc(F)c1)c1cc(C(=O)N(C)C)cc2c(=O)cc(N3CCOCC3)oc12 [AZD8186]; conditions: max 10 µM
Outline: as §1

Carboplatin = compound: C1CC(C1)(C(=O)[O-])C(=O)[O-].N.N.[Pt+2] [Carboplatin]; conditions: max 10 µM
Outline: as §1

Gemcitabine = compound: Nc1ccn([C@@H]2O[C@H](CO)[C@@H](O)C2(F)F)c(=O)n1 [Gemcitabine]; conditions: max 0.3 µM
Outline: as §1

AZD0156 = compound: CN(C)CCCOc1ccc(-c2ccc3ncc4c(c3c2)n(C2CCOCC2)c(=O)n4C)cn1 [AZD0156]; conditions: max 3 µM
Outline: as §1

SG3199 = compound: CC1=CN2[C@@H](C1)C=NC3=CC(=C(C=C3C2=O)OC)OCCCCCOC4=C(C=C5C(=C4)N=C[C@@H]6CC(=CN6C5=O)C)OC [SG3199]; conditions: max 0.001 µM
Outline: as §1

AZD5363 = compound: C1CN(CCC1(C(=O)N[C@@H](CCO)C2=CC=C(C=C2)Cl)N)C3=NC=NC4=C3C=CN4 [AZD5363]; conditions: max 10 µM
Outline: as §1

Dasatinib = compound: CC1=C(C(=CC=C1)Cl)NC(=O)C2=CN=C(S2)NC3=CC(=NC(=N3)C)N4CCN(CC4)CCO [Dasatinib]; conditions: max 2 µM
Outline: as §1

5-Fluorouracil = compound: O=c1[nH]cc(F)c(=O)[nH]1 [5-Fluorouracil]; conditions: max 20 µM
Outline: as §1

Cell Line	IC50, cell viability 72 h (Crizotinib) [µM]	IC50, cell viability 72 h (Selumetinib) [µM]	IC50, cell viability 72 h (SN-38) [µM]	IC50, cell viability 72 h (AZD5991) [µM]	IC50, cell viability 72 h (Paclitaxel) [µM]	IC50, cell viability 72 h (AZD5153) [µM]	IC50, cell viability 72 h (Trametinib) [µM]	IC50, cell viability 72 h (Lapatinib) [µM]	IC50, cell viability 72 h (Etoposide) [µM]	IC50, cell viability 72 h [1] [µM]	IC50, cell viability 72 h (AZD2811) [µM]	IC50, cell viability 72 h (Gefitinib) [µM]	IC50, cell viability 72 h (Doxorubicin) [µM]	IC50, cell viability 72 h (Olaparib) [µM]	IC50, cell viability 72 h (Prexasertib) [µM]	IC50, cell viability 72 h (SRA737) [µM]	IC50, cell viability 72 h (Venetoclax) [µM]	IC50, cell viability 72 h (Taselisib) [µM]	IC50, cell viability 72 h (AZD1390) [µM]	IC50, cell viability 72 h (Alisertib) [µM]	IC50, cell viability 72 h (MK-2206) [µM]	IC50, cell viability 72 h (AZD7648) [µM]	IC50, cell viability 72 h (Palbociclib) [µM]	IC50, cell viability 72 h (AZD6738) [µM]	IC50, cell viability 72 h (Savolitinib) [µM]	IC50, cell viability 72 h (AZD1775) [µM]	IC50, cell viability 72 h (AZD4320) [µM]	IC50, cell viability 72 h (AZD8186) [µM]	IC50, cell viability 72 h (Carboplatin) [µM]	IC50, cell viability 72 h (Gemcitabine) [µM]	IC50, cell viability 72 h (AZD0156) [µM]	IC50, cell viability 72 h (SG3199) [µM]	IC50, cell viability 72 h (AZD5363) [µM]	IC50, cell viability 72 h (Dasatinib) [µM]	IC50, cell viability 72 h (5-Fluorouracil) [µM]
EB-3 (Burkitt's Lymphoma)	7.29	> 10	0.0529	> 1	0.0887	0.128	> 1	> 10	1.02	> 5	> 1	> 10	0.194	> 10	0.0864	> 10	> 1	> 10	> 0.3	> 10	> 10	> 10	> 10	7.04	> 1	0.555	> 1	> 10	> 10	> 0.3	> 3	> 0.001	> 10	> 2	> 20
PANC-02-03 (Pancreatic Carcinoma)	> 10	> 10	0.137	> 1	1.67	0.494	0.259	> 10	> 10	2.93	> 1	> 10	> 1	> 10	0.405	> 10	> 1	> 10	> 0.3	> 10	> 10	> 10	> 10	> 10	> 1	1.79	> 1	> 10	> 10	> 0.3	> 3	> 0.001	> 10	> 2	> 20
PC-14 (Lung Adenocarcinoma)	6.02	> 10	0.104	> 1	0.00894	> 1	0.453	1.7	> 10	> 5	> 1	0.127	> 1	> 10	0.0254	3.33	> 1	4.7	> 0.3	2.96	> 10	> 10	> 10	2.68	> 1	0.407	> 1	> 10	> 10	0.0562	> 3	> 0.001	> 10	0.129	> 20
FLO-1 (Esophageal Adenocarcinoma)	9.36	> 10	0.201	> 1	0.00542	0.793	> 1	> 10	2.55	> 5	> 1	> 10	0.225	> 10	0.0993	> 10	> 1	8.83	> 0.3	7.3	> 10	> 10	> 10	> 10	> 1	0.266	> 1	> 10	> 10	0.0938	> 3	> 0.001	> 10	0.0648	7.08
NKM-1 (Acute Myeloid Leukemia)	2.03	2.7	0.00201	0.0493	0.00366	0.0594	0.0833	> 10	0.496	2	0.502	> 10	0.0241	4.42	0.015	2.37	0.102	0.201	> 0.3	0.177	0.855	> 10	1.25	1.86	> 1	0.455	0.00773	1.27	> 10	0.00513	> 3	> 0.001	8.12	0.147	3.19
